Patent US4169015A, “Novel chromogenic thrombin substrates” (AB Kabi, priority 1975, dated 1979)
Values after ≈ are worked out from the molar mass of the structure shown. Read-outs that look alike come from different tables or passages of the source. Where a SMILES comes first, the peptide text is derived from it. The star is where a group is joined. pNA = O=[N+]([O-])c1ccc(N*)cc1; Bz = O=C(c1ccccc1)*

Tests used:
Solubility in water = type: physicochemical
thrombin = experiment: Relative reaction velocity between thrombin and chromogenic substrate (p-nitroaniline release, 405 nm); type: biochemical; conditions: for Rel. reaction velocity: thrombin 0.4 NIH/ml, substrate 0.1 μmol/ml, relative, S-2160 = 100
Excerpt: The substrates prepared according to the examples are used for determination of thrombin as stated below.
The determination principle is based upon the fact that the splitting product formed by enzymatic hydrolysis has a UV-spectrum which is essentially different from that of the substrate. Thus, the substrate according to Example X, H--D--Phe--Pip--Arg--pNA, has an absorption maximum at 315 nm and the molar extinction coefficient of 12500. At 405 nm the absorption of the substrate has almost completely stopped. p-Nitroaniline, split off from the substrate during the enzymatic hydrolysis, has an absorption maximum at 380 nm and a molar extinction coefficient of 13200 which at 405 nm only had decreased to 9620. By spectrophotometrical determination at 405 nm it is thus possible to easily follow the amount of p-nitroaniline formed, which is proportional to the degree of the enzymatic hydrolysis which in its turn is determined by the active amount of thrombin. For other substrates according to the invention rather identical conditions exist and for this reason the determinations have consistently been made at 405 nm.
They react 4 times more rapidly with thrombin than the previously best substrate, S-2160, and are further about 10 times more soluble in water than S-2160.
Relative reactions velocity between thrombin (0.4 NIH/ml) and substrate (0.1 μmol/ml).

[1] = water, Table I, in H2O, read-out: Solubility in H2O

SMILES	solubility (Solubility in water; [1]) [µg/mL]	Rel. reaction velocity (thrombin)	decrease of the velocity with which thrombin splits the substrate (thrombin; versus S-2160 (benzoyl replaced with H))	solubility (Solubility in water; medium not stated, read-out: solubility) [µg/mL]	solubility compared with S-2160 (in words) (Solubility in water; versus S-2160)
CC(C)[C@H](NC(=O)[C@@H](N)Cc1ccccc1)C(=O)N[C@@H](CCCNC(=N)N)C(=O)Nc1ccc([N+](=O)[O-])cc1 [B, H-Phe-Val-Arg-pNA, reference compound] (H-Phe-Val-Arg-pNA)	1000 (≈ 1850 µM)	3	about 30 times	–	–
CC(C)[C@H](NC(=O)[C@H](Cc1ccccc1)NC(=O)c1ccccc1)C(=O)N[C@@H](CCCNC(=N)N)C(=O)Nc1ccc([N+](=O)[O-])cc1 [Example S-2160, Bz-Phe-Val-Arg-pNA, reference compound] (Bz-Phe-Val-Arg-pNA)	100 (≈ 155 µM)	100	–	1000 (≈ 1550 µM)	considerably more soluble
N=C(N)NCCC[C@H](NC(=O)[C@@H]1CCCCN1C(=O)[C@H](N)Cc1ccccc1)C(=O)Nc1ccc([N+](=O)[O-])cc1 [Example X, H--D--Phe--Pip--Arg--pNA.2HCl]	3000	420	–	–	–
N=C(N)NCCC[C@H](NC(=O)[C@@H]1CCCN1C(=O)[C@@H](N)Cc1ccccc1)C(=O)Nc1ccc([N+](=O)[O-])cc1 [IX, H--Phe--Pro--Arg--pNA.2HCl]	1000	15	–	–	–
N=C(N)NCCC[C@H](NC(=O)[C@@H]1CCCN1C(=O)[C@H](N)Cc1ccccc1)C(=O)Nc1ccc([N+](=O)[O-])cc1 [VIII, H--D--Phe--Pro--Arg--pNA.2HCl]	3000	400	–	–	–
N=C(N)NCCC[C@H](NC(=O)[C@@H]1CCCCN1C(=O)[C@@H](N)Cc1ccccc1)C(=O)Nc1ccc([N+](=O)[O-])cc1 [XI, H--Phe--Pip--Arg--pNA.2HCl]	1000	9	–	–	–
